# Biological target: T1, human CD73 (Homo sapiens, UniProt P21589)
# T1 construct: host or cells: CHO-K1 (suspension pool CHO-CD73)
# T1 sequence (P21589 27-549): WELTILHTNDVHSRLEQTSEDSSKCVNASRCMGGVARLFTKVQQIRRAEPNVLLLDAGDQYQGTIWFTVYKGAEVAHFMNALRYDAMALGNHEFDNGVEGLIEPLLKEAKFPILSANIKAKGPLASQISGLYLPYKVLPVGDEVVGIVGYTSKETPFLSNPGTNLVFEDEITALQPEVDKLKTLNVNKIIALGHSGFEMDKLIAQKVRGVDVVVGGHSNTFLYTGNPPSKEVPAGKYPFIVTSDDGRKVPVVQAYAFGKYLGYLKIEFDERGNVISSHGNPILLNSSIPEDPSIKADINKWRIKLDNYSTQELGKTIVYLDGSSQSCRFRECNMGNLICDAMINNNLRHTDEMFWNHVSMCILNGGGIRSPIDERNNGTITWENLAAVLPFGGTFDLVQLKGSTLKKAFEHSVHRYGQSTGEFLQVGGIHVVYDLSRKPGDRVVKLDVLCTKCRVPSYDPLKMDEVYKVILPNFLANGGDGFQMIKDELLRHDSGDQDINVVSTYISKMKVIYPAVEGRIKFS
# Experiment: Inhibition of ecto-5′-nucleotidase (CD73) activity in CHO-CD73 cells, phosphate colorimetric readout
# Type: cell-based
# Settings: CHO-K1 cells stably transfected with human CD73, 2500 cells per well, 25 μM AMP substrate, 50 minutes incubation at 37° C.; read-out: Potency: CD73 IC50
# Procedure, shortened: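 Phosphate generated from 25 μM AMP was the read-out (absorbance 620 nm) after 50 min at 37 °C with 2500 human CD73-transfected CHO-K1 cells per well, pH 7.4 HEPES buffer, 2% DMSO. % activity, normalised to DMSO and cell-free wells, was fitted by four-parameter regression to give IC50.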
row,Compound,IC50 [nM]
1,C[C@H](Nc1nc(Cl)nc2c1ccn2[C@@H]1O[C@H](COP(=O)(O)CP(=O)(O)O)[C@@H](O)[C@H]1O)c1cccc(F)c1,< 100
2,O=P(O)(O)CP(=O)(O)OC[C@H]1O[C@@H](n2cnc3c(NC4CCCC4)nc(CN4CCCCC4)nc32)[C@@H](F)[C@@H]1O,100 to 1000
3,O=P(O)(O)CP(=O)(O)OC[C@H]1O[C@@H](n2cnc3c(NC4CC4)nc(Cl)nc32)[C@@H](F)[C@@H]1O,< 100
4,C[C@@H](Nc1nc(Cl)nc2c1cnn2[C@@H]1O[C@H](COP(=O)(O)CP(=O)(O)O)[C@@H](O)[C@H]1O)c1ccccc1,< 100
5,CC(C)(C)c1ccc(CNc2ncnc3c2ncn3[C@@H]2O[C@H](COP(=O)(O)CP(=O)(O)O)[C@@H](O)[C@H]2O)cc1,< 100
6,C[C@H](Nc1nc(Cl)nc2c1ccn2[C@@H]1O[C@H](COP(=O)(O)CP(=O)(O)O)[C@@H](O)[C@@H]1F)c1ccc(F)cc1,< 100
7,C[C@H](Nc1nc(Cl)nc2c1cnn2[C@@H]1O[C@H](COP(=O)(O)CP(=O)(O)O)[C@@H](O)[C@H]1O)c1ccc(F)cc1,< 100
8,O=P(O)(O)CP(=O)(O)OC[C@H]1O[C@@H](n2ncc3c(N[C@H](c4ccccc4)C(F)(F)F)nc(Cl)nc32)[C@H](O)[C@@H]1O,< 100
9,CN(c1nc(Cl)nc2c1ncn2[C@@H]1O[C@H](COP(=O)(CP(=O)(Oc2ccccc2)Oc2ccccc2)Oc2ccccc2)[C@@H](O)[C@H]1O)C1CCCC1 (stereo partly shown),> 1000
10,O=P(O)(O)CP(=O)(O)OC[C@H]1O[C@@H](n2ccc3c(NCc4ccccc4)nc(Cl)nc32)[C@@H](F)[C@@H]1O,< 100
11,O=P(O)(O)CP(=O)(O)OC[C@H]1O[C@@H](n2ncc3c(NCCc4ccccc4Cl)nc(Cl)nc32)[C@H](O)[C@@H]1O,< 100
12,C[C@@H](Nc1nc(Cl)nc2c1cnn2[C@@H]1O[C@H](COP(=O)(O)CP(=O)(O)O)[C@@H](O)[C@H]1O)c1cccc(F)c1,< 100
13,CCNc1nc(Cl)nc2c1ncn2[C@@H]1O[C@H](COP(=O)(O)CP(=O)(O)O)[C@@H](O)[C@@H]1F,< 100

# Source: patent US12459967B2, “Modulators of 5′-nucleotidase, ecto and the use thereof” (Arcus Biosciences, Inc., priority 2016, dated 2025)
